The record followed here is ChEMBL document CHEMBL1136364, “Synthesis and antimalarial activity of 2-methoxyprop-2-yl peroxides derivatives” (Bioorg Med Chem Lett, 2003).

As usually defined, the IC50 is the midpoint of a concentration-inhibition curve.

Structures are written as SMILES.

This test deals with Plasmodium falciparum. In words: In vitro antimalarial activity against Plasmodium falciparum FCR3. Type of test: functional, organism-based.
In turn, `COC(C)(C)OOCCC1=CC[C@H]2C[C@@H]1C2(C)C` came in with a half-inhibitory concentration (IC50) of 370 nM.

Turning to `CO[C@H]1O[C@@H]2O[C@@]3(C)CC[C@H]4[C@H](C)CC[C@@H]([C@H]1C)[C@@]24OO3` [ARTEMETHER], it took 14 nM to reach half-maximal inhibition (IC50). The same measure for `COC(C)(C)OOCCCC1=CC[C@H]2C[C@@H]1C2(C)C`: 600 nM. In the case of `CCCCCCCCOOC(C)(C)OC`, the IC50 was determined as 2600 nM. The same measure for `COC(C)(C)OOCCCCC1=CC[C@H]2C[C@@H]1C2(C)C`: 480 nM; for `COC(C)(C)OOCCCc1ccccc1`: 660 nM; for `CCCCCCOOC(C)(C)OC`: 1550 nM. In turn, `CCCCCCCCCCCCCCCCCCOOC(C)(C)OC` yielded an IC50 of 1330 nM. The value for `CCCCCCCCCCCCCCCCOOC(C)(C)OC` was 440 nM. `COC(C)(C)OOCCC(C)C`: the half-maximal inhibitory concentration (IC50) turned out to be 1650 nM. The value for `CCCCCCCCCCCCOOC(C)(C)OC` was 670 nM. In turn, `C[C@@H]1CC[C@H]2[C@@H](C)C(=O)O[C@@H]3O[C@@]4(C)CC[C@@H]1[C@]32OO4` [ARTEMISININ] had an IC50 of 55 nM. Regarding `COC(C)(C)OOCCCC#N`, the IC50 stood at 12800 nM. The same measure for `CCCCCCCOOC(C)(C)OC`: 800 nM; for `COC(C)(C)OOCCc1ccccc1`: 520 nM.

On to `CCOC(=O)CCCOOC(C)(C)OC`, for which the midpoint of inhibition, the IC50, lay at 6950 nM. The value for `COCCOOC(C)(C)OC` was 3200 nM; that for `COC(C)(C)OOCCCOc1ccccc1` was 870 nM.
